Results from ChEMBL document CHEMBL1201862, “PubChem BioAssay data set” (2004).
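Five concentrations, 48 hours, 96-well plates. The concentration for 50% growth inhibition is given as GI50.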 Calls of active or inactive are those of the source. Rule as the data show it: active = GI50 up to about 1.1 µM and inactive = higher.

Assays:
Test in all cases: inhibition of tumour cell growth, NCI panel, 48 h
[1] = system: UO-31
[2] = system: HOP-62
[3] = system: OVCAR-4
[4] = system: SK-MEL-28
[5] = system: A498
[6] = system: UACC-62
[7] = system: SNB-78
[8] = system: LXFL 529
[9] = system: NCI-H226
[10] = system: MOLT-4
[11] = system: ACHN
[12] = system: RPMI-8226
[13] = system: XF498
[14] = system: Malme-3M
[15] = system: DMS-114
[16] = system: SNB-75
[17] = system: COLO 205
[18] = system: M14
[19] = system: M19-MEL
[20] = system: DLD-1
[21] = system: K562
[22] = system: CAKI-1
[23] = system: HOP-92
[24] = system: HL-60
[25] = system: SF-539
[26] = system: DMS-273
[27] = system: SK-OV-3
[28] = system: HCT-116
[29] = system: SR
[30] = system: CCRF-CEM
[31] = system: SF-268
[32] = system: NCI-H23
[33] = system: SK-MEL-2
[34] = system: IGROV-1
[35] = system: NCI-H522
[36] = system: SN12C
[37] = system: HCC 2998
[38] = system: 786-0
[39] = system: HT-29
[40] = system: OVCAR-8
[41] = system: UACC-257
[42] = system: SF-295
[43] = system: HCT-15
[44] = system: LOX IMVI
[45] = system: OVCAR-3
[46] = system: NCI-H460
[47] = system: A549
[48] = system: TK-10
[49] = system: EKVX
[50] = system: OVCAR-5
[51] = system: KM-20L2
[52] = system: SNB-19
[53] = system: RXF 393
[54] = system: U-251
[55] = system: KM12
[56] = system: SW-620
[57] = system: SK-MEL-5

In the case of `COc1ccc(/C=N/Nc2nc(C)c3c(n2)Nc2ccccc2NC3=O)cc1`, the GI50 [1] is reported as > 100 µM (inactive), the GI50 [2] is reported as > 100 µM (inactive) and the GI50 [3] is reported as > 100 µM (inactive). For the same molecule, the GI50 [4] was > 100 µM (inactive), the GI50 [5] was > 100 µM (inactive) and the GI50 [6] was > 100 µM (inactive). The GI50 [7] was > 100 µM (inactive), the GI50 [8] was 76.7 µM (inactive) and the GI50 [9] was > 100 µM (inactive). The GI50 [10] was > 100 µM (inactive), the GI50 [11] was > 100 µM (inactive) and the GI50 [12] was > 100 µM (inactive). For the same molecule, the GI50 [13] was > 100 µM (inactive), the GI50 [14] was > 100 µM (inactive) and the GI50 [15] was > 100 µM (inactive). For the same molecule, the GI50 [16] was 42.6 µM (inactive), the GI50 [17] was > 100 µM (inactive) and the GI50 [18] was > 100 µM (inactive). For the same molecule, the GI50 [19] was > 100 µM (inactive), the GI50 [20] was > 100 µM (inactive) and the GI50 [21] was > 100 µM (inactive). The GI50 [22] was > 100 µM (inactive), the GI50 [23] was > 100 µM (inactive) and the GI50 [24] was > 100 µM (inactive). The GI50 [25] was > 100 µM (inactive), the GI50 [26] was > 100 µM (inactive) and the GI50 [27] was > 100 µM (inactive). The GI50 [28] was > 100 µM (inactive), the GI50 [29] was > 100 µM (inactive) and the GI50 [30] was > 100 µM (inactive). For the same molecule, the GI50 [31] was > 100 µM (inactive), the GI50 [32] was > 100 µM (inactive) and the GI50 [33] was > 100 µM (inactive). The GI50 [34] was > 100 µM (inactive), the GI50 [35] was > 100 µM (inactive) and the GI50 [36] was > 100 µM (inactive). For the same molecule, the GI50 [37] was > 100 µM (inactive) and the GI50 [38] was > 100 µM (inactive).
With `COC1(OC)CCC2(C)OC(c3ccccc3)C1O2` (stereo unspecified) the GI50 [39] was > 100 µM (inactive), the GI50 [1] was > 100 µM (inactive) and the GI50 [2] was > 100 µM (inactive). For the same molecule, the GI50 [3] was > 100 µM (inactive), the GI50 [40] was > 100 µM (inactive) and the GI50 [4] was > 100 µM (inactive). The GI50 [6] was > 100 µM (inactive), the GI50 [8] was > 100 µM (inactive) and the GI50 [9] was > 100 µM (inactive). For the same molecule, the GI50 [10] was > 100 µM (inactive), the GI50 [11] was > 100 µM (inactive) and the GI50 [41] was > 100 µM (inactive). For the same molecule, the GI50 [12] was > 100 µM (inactive), the GI50 [42] was > 100 µM (inactive) and the GI50 [13] was > 100 µM (inactive). The GI50 [14] was > 100 µM (inactive), the GI50 [43] was over 100 µM and the GI50 [44] was > 100 µM (inactive). For the same molecule, the GI50 [15] was > 100 µM (inactive), the GI50 [16] was > 100 µM (inactive) and the GI50 [17] was > 100 µM (inactive). For the same molecule, the GI50 [18] was > 100 µM (inactive), the GI50 [45] was > 100 µM (inactive) and the GI50 [20] was > 100 µM (inactive). For the same molecule, the GI50 [21] was > 100 µM (inactive), the GI50 [46] was > 100 µM (inactive) and the GI50 [47] was > 100 µM (inactive). The GI50 [22] was > 100 µM (inactive), the GI50 [24] was > 100 µM (inactive) and the GI50 [25] was > 100 µM (inactive). For the same molecule, the GI50 [48] was > 100 µM (inactive), the GI50 [26] was > 100 µM (inactive) and the GI50 [27] was > 100 µM (inactive). For the same molecule, the GI50 [49] was > 100 µM (inactive), the GI50 [28] was > 100 µM (inactive) and the GI50 [29] was > 100 µM (inactive). The GI50 [30] was > 100 µM (inactive), the GI50 [31] was > 100 µM (inactive) and the GI50 [50] was > 100 µM (inactive). The GI50 [32] was > 100 µM (inactive), the GI50 [51] was > 100 µM (inactive) and the GI50 [33] was > 100 µM (inactive). The GI50 [52] was > 100 µM (inactive), the GI50 [53] was > 100 µM (inactive) and the GI50 [54] was > 100 µM (inactive). The GI50 [34] was > 100 µM (inactive), the GI50 [35] was > 100 µM (inactive) and the GI50 [55] was > 100 µM (inactive). For the same molecule, the GI50 [36] was > 100 µM (inactive), the GI50 [37] was > 100 µM (inactive) and the GI50 [38] was > 100 µM (inactive). For the same molecule, the GI50 [56] was > 100 µM (inactive).
For `[O-]c1on[n+]2c1c(Nc1ccc(Cl)cc1)nc1ccccc12`, the GI50 [39] was > 100 µM (inactive), the GI50 [1] was > 100 µM (inactive) and the GI50 [3] was > 100 µM (inactive). The GI50 [40] was > 100 µM (inactive), the GI50 [4] was > 100 µM (inactive) and the GI50 [5] was > 100 µM (inactive). For the same molecule, the GI50 [6] was > 100 µM (inactive), the GI50 [7] was > 100 µM (inactive) and the GI50 [8] was > 100 µM (inactive). For the same molecule, the GI50 [10] was > 100 µM (inactive), the GI50 [11] was > 100 µM (inactive) and the GI50 [41] was > 100 µM (inactive). For the same molecule, the GI50 [12] was > 100 µM (inactive), the GI50 [42] was > 100 µM (inactive) and the GI50 [13] was > 100 µM (inactive). For the same molecule, the GI50 [44] was > 100 µM (inactive), the GI50 [15] was > 100 µM (inactive) and the GI50 [16] was 85.1 µM (inactive). For the same molecule, the GI50 [17] was > 100 µM (inactive), the GI50 [18] was > 100 µM (inactive) and the GI50 [45] was > 100 µM (inactive). The GI50 [19] was > 100 µM (inactive), the GI50 [20] was > 100 µM (inactive) and the GI50 [21] was > 100 µM (inactive). The GI50 [46] was > 100 µM (inactive), the GI50 [47] was > 100 µM (inactive) and the GI50 [23] was > 100 µM (inactive). The GI50 [24] was > 100 µM (inactive), the GI50 [25] was > 100 µM (inactive) and the GI50 [48] was > 100 µM (inactive). For the same molecule, the GI50 [26] was > 100 µM (inactive), the GI50 [27] was > 100 µM (inactive) and the GI50 [49] was > 100 µM (inactive). For the same molecule, the GI50 [28] was > 100 µM (inactive), the GI50 [29] was > 100 µM (inactive) and the GI50 [30] was > 100 µM (inactive). For the same molecule, the GI50 [31] was > 100 µM (inactive), the GI50 [50] was > 100 µM (inactive) and the GI50 [32] was > 100 µM (inactive). For the same molecule, the GI50 [51] was > 100 µM (inactive), the GI50 [52] was > 100 µM (inactive) and the GI50 [53] was > 100 µM (inactive). The GI50 [54] was > 100 µM (inactive), the GI50 [34] was > 100 µM (inactive) and the GI50 [35] was > 100 µM (inactive). The GI50 [55] was > 100 µM (inactive), the GI50 [36] was > 100 µM (inactive) and the GI50 [37] was > 100 µM (inactive). The GI50 [57] was > 100 µM (inactive), the GI50 [38] was > 100 µM (inactive) and the GI50 [56] was > 100 µM (inactive).
